These results are taken from article PMC8992272, “Stabilities of Three Key Biological Trisulfides with Implications for Their Roles in the Release of Hydrogen Sulfide and Bioaccumulation of Sulfane Sulfur” (ACS Omega, 2022).

For data set [1] the following is noted: cited from earlier work.
A short description of data set [2]: Stability in D2O in the presence of butylamine or triethylamine, tracked by 1H NMR. Format: physicochemical. The note with it: for tetrasulfide present: butylamine and triethylamine; for degraded: after 1 day. On the procedure: N-Acetylcysteine trisulfide (26.5 mg, 66 μmol) was dissolved in 600 μL of D2O. Butylamine (5.0 mg, 68 μmol) was added, and the ^1H NMR spectra were taken periodically to track degradation.
N-Acetylcysteine trisulfide (26.5 mg, 66 μmol) was dissolved in 600 μL of D2O. Triethylamine (8.0 mg, 79 μmol) was added, and the ^1H NMR spectra were taken periodically to track degradation.
Cysteine trisulfide (5.5 mg, 20 μmol) was added to 600 μL of D2O. The solution was filtered to remove undissolved particles. […] The ^1H NMR spectra were taken periodically to track degradation.
Cysteine trisulfide (4.3 mg, 16 μmol) was added to 600 μL of D2O. The solution was filtered to remove undissolved particles. […] The ^1H NMR spectra were taken periodically to track degradation.
N-Acetylcysteine tetrasulfide (17.2 mg, 44 μmol) was dissolved in 600 μL of D2O. Butylamine (9.9 mg, 135 μmol) was added, and the ^1H NMR spectra were taken periodically to track degradation.
N-Acetylcysteine tetrasulfide (17.2 mg, 44 μmol) was dissolved in 600 μL of D2O. Triethylamine (13.5 mg, 135 μmol) was added, and the ^1H NMR spectra were taken periodically to track degradation.

A short description of data set [3]: Stability in nonbuffered D2O at room and elevated temperature (1H NMR). Format: physicochemical. The note with it: nonbuffered D2O. Here is the method: N-Acetylcysteine trisulfide (24.3 mg, 61 μmol) was dissolved in 500 μL of D2O and placed in a 40 °C oil bath. The ^1H NMR spectra were taken periodically to track degradation.
N-Acetylcysteine trisulfide (24.3 mg, 61 μmol) was dissolved in 500 μL of D2O and placed in a 60 °C oil bath. The ^1H NMR spectra were taken periodically to track degradation.
N-Acetylcysteine tetrasulfide (8.0 mg, 21 μmol) was dissolved in 600 μL of D2O. The ^1H NMR spectra were taken periodically to track degradation.
N-Acetylcysteine tetrasulfide (10.0 mg, 26 μmol) was dissolved in 600 μL of D2O and placed in a 40 °C oil bath. The ^1H NMR spectra were taken periodically to track degradation.

A short description of data set [4]: Stability in water/D2O buffered at different pH values, tracked by 1H NMR. Format: physicochemical. Particulars: for half-life: buffered water/D2O, read-out: estimated half-life (converted); for degradation: pH 5.8, 9 days. From the text:
The ^1H NMR spectra of NAC and the disulfide, trisulfide, and tetrasulfide of NAC had peaks at unique values for chemical shifts and allowed for their easy characterization (Figure 3). Pure chemicals of each sulfide were synthesized and characterized by ^1H and ^13C NMR spectroscopy as well as by high-resolution mass spectroscopy. The unique chemical shifts of the peaks for the Ha and Hb/Hc protons on the sulfides allowed the integration of each sulfide to be determined.
The stability of NAC trisulfide in water buffered at pH values of 5.8, 7.4, and 9.0 was measured.
The stability of cysteine trisulfide was investigated in buffered water at pH values of 5.8, 7.0, and 9.0. […] At pH values of 5.8, 7.0, and 9.0, the cysteine trisulfide was soluble and its ^1H NMR spectra were obtained.
The stability of glutathione trisulfide was investigated at pH values of 5.8, 7.4, and 9.0 (Figure S14a). The degradation of glutathione trisulfide was more rapid at pH values of 5.8 and 7.4 than that of the trisulfides of NAC and cysteine. At an acidic pH of 5.8, 71% of glutathione trisulfide degraded after 10 days. At pH values of 7.4 and 9.0, glutathione trisulfide degraded 79 and 81%, respectively, at day 9. […] The degradation of glutathione trisulfide reached an equilibrium of approximately 20% with the disulfide due to the reaction catalyzed by amine with elemental sulfur. Rate constants and half-lives were obtained for the degradation of glutathione trisulfide at each pH value using early data points unaffected by the equilibrium. At pH values of 5.8, 7.4, and 9.0, the estimated half-lives were 6.3 days (151 h), 0.90 days (21.6 h), and 0.79 days (19.0 h), respectively (Figure S14b).
The stability of NAC tetrasulfide was investigated in D2O buffered at pH values of 5.8, 7.4, and 9.0 (Figure S16a). At a pH of 5.8, NAC tetrasulfide degraded by 13% after 9 days. At pH values of 7.4 and 9.0, the tetrasulfide degraded by 55 and 52%, respectively, after 9 days. At each pH, the degradation product was NAC trisulfide, elemental sulfur, and a small amount of NAC disulfide (<3%). […] Estimated rate constants and half-lives for the degradation of NAC tetrasulfide at each pH were obtained. At pH values of 5.8, 7.4, and 9.0, the estimated half-lives were 53.3, 7.5, and 8.2 days, respectively (Figure S16b).

The conditions of data set [5]: no reference given, cited from earlier work.
Data set [6] is described as follows: Stability in the presence of acetonitrile, benzamide, zinc sulfate or iron sulfate, or in methanol-d4 (1H NMR). Particulars: 3:1 mole ratio acetonitrile or benzamide, D2O, after 12 days. The format is physicochemical. On the procedure: N-Acetylcysteine trisulfide (26.5 mg, 66 μmol) was dissolved in 600 μL of D2O. Acetonitrile (3.0 mg, 73 μmol) was added, and the ^1H NMR spectra were taken periodically to track degradation.
N-Acetylcysteine trisulfide (31.4 mg, 78 μmol) was dissolved in 600 μL of D2O. Benzamide (9.4 mg, 78 μmol) was added, and the ^1H NMR spectra were taken periodically to track degradation.
N-Acetylcysteine trisulfide (15.0 mg, 38 μmol) was dissolved in 600 μL of D2O. ZnSO4 (11.8 mg, 73 μmol) was added, and the ^1H NMR spectra were taken periodically to track degradation.
N-Acetylcysteine trisulfide (15.0 mg, 38 μmol) was dissolved in 600 μL of D2O. FeSO4·7H2O (11.6 mg, 41 μmol) was added, and the ^1H NMR spectra were taken periodically to track degradation.
N-Acetylcysteine trisulfide (32.1 mg, 80 μmol) was dissolved in 600 μL of CD3OD. The ^1H NMR spectra were taken periodically to track degradation.
Cysteine trisulfide (5.1 mg, 19 μmol) was added to 600 μL of D2O. Solution was filtered to remove undissolved particles. […] The ^1H NMR spectra were taken periodically to track degradation.
Cysteine trisulfide (6.8 mg, 25 μmol) was added to 600 μL of D2O. Solution was filtered to remove undissolved particles. […] The ^1H NMR spectra were taken periodically to track degradation.

The next data set is described as follows: Solubility observations. The format is physicochemical.
A short description of data set [7]: Equilibrium between di-, tri- and tetrasulfides in the presence of elemental sulfur (1H NMR). Format: physicochemical. The note with it: D2O with elemental sulfur and butylamine, after 4 days.
Protocol: To test this hypothesis, a reaction was completed in D2O with elemental sulfur, NAC disulfide, and butylamine.
To understand why the degradation leveled off, NAC trisulfide was dissolved in water, elemental sulfur was added, and the contents were heated to 40 °C.
N-Acetylcysteine disulfide (9.3 mg, 23 μmol) was dissolved in 600 μL of D2O. Elemental sulfur (6.8 mg, 0.21 mmol) and butylamine (18.5 mg, 0.25 mmol) were added, and the ^1H NMR spectra were periodically obtained to track the equilibrium.

Read-outs that look alike come from different tables or passages of the source.

As for `C=CCSSSCC=C` [DATS, diallyl trisulfide], the degradation entry in data set [1] (in the presence of glutathione (GSH)) is “degraded rapidly”. The stability result in data set [1] (micellar solution (propylene glycol, ethanol, Tween 80, water), pH 2.6 to 7.0, 15 min, HPLC) is reported as “stable”; in data set [1] (neat, 4 °C, after 3 months, HPLC), “stable”; in data set [1] (same micellar solution, in the presence of antioxidants), “not stable”. Further, the degraded in data set [1] (neat, 35 °C, after 3 months, HPLC) is 30%; in data set [1] (neat, room temperature, after 3 months, HPLC), 11%.

Usually half-life stands for the time needed for the level to fall by half in the phase considered. For the compound `CC(=O)NC(CSSSSCC(NC(C)=O)C(=O)O)C(=O)O` (centres unmarked) [NAC tetrasulfide, N-Acetylcysteine Tetrasulfide], in data set [1] (in the presence of thiols, released H2S), the stability result is on record as “unstable”. Besides, the half-life at 73 mM in data set [2] (D2O with butylamine or triethylamine, in the presence of butylamine and triethylamine (both amines), read-out: upper limit of the half-life) was ≤ 1.6 min. In addition, the half-life in data set [2] (D2O with butylamine, in the presence of butylamine (abstract), read-out: half-life) is ≤ 0.025 h; in data set [4] (pH 5.8, pH 5.8), 1280 h; in data set [4] (pH 7.4, pH 7.4), 180 h; in data set [4] (pH 9, pH 9.0), 197 h. The figures for the tetrasulfide present result in data set [2] (after 5 min) and in data set [2] (after a day) were “less than 10%” and 4%, respectively. The estimated rate constant in data set [3] (40 °C) was 8.7 × 10^–2 days^–1; in data set [3] (room temperature), 3.9 × 10^–2 days^–1. For the same compound, the degraded is recorded as 83% in data set [3] (40 °C, after 20 days); 69% in data set [3] (room temperature, after 35 days); 55% in data set [4] (pH 7.4, day 9); 52% in data set [4] (pH 9.0, day 9). The degradation in data set [3] (40 °C, after 63 days) is listed as 83%; in data set [4], 13%. For the same compound, the half-life at 43 mM in data set [3] (40 °C, read-out: estimated half-life (converted)) is 192 h. In data set [3] (room temperature, read-out: estimated half-life (converted)), the half-life at 35 mM is 427 h.

For orientation: pKa means the negative logarithm of the acid dissociation constant. For `N[C@@H](CS)C(=O)O` [cysteine], in data set [5] (ammonium group), the pKa is given as 10.8.

Turning to `N[C@@H](CCC(=O)N[C@@H](CS)C(=O)NCC(=O)O)C(=O)O` [glutathione], the pKa in data set [5] (ammonium group) is given as 9.6.

For the compound `CSSSC` [DMTS, dimethyl trisulfide], the degradation entry in data set [1] (neat, 4 and 22 °C, over 1 year) is recorded as “no degradation”. The degraded in data set [1] (neat, 34 °C, over 1 year) was 70%.

For the compound `N[C@@H](CSSSC[C@H](N)C(=O)O)C(=O)O` [cysteine trisulfide, Cysteine Trisulfide], the half-life in data set [2] (D2O with butylamine, in the presence of butylamine, D2O, early data points, read-out: estimated half-life of degradation (converted)) was 2.3 h; in data set [2] (D2O with triethylamine, in the presence of triethylamine, D2O, early data points, read-out: estimated half-life of degradation (converted)), 2.9 h; in data set [4] (pH 7, pH 7.0), 406 h; in data set [4] (pH 9, pH 9.0), 274 h. Further, the “trisulfide remaining (degradation leveled off)” value in data set [2] (after 10 days in the presence of butylamine and triethylamine, D2O) is listed as “approximately 20%”. Further, the degraded turned out to be 63% in data set [2] (in the presence of butylamine, D2O); 78% in data set [2] (in the presence of triethylamine, D2O); 40% in data set [4] (pH 7.0, after 13 days); 56% in data set [4] (pH 9.0, after 13 days). The degradation entry is “no observable degradation” in data set [6] and < 3% in data set [4]. The solubility entry in the data set “Solubility observations” (buffered water pH 5.8, 7.0 and 9.0) is “soluble”; in “Solubility observations” (buffered water pH 7.4), “poorly soluble”. In addition, the stability entry in data set [4] (basic conditions (abstract)) is reported as “unstable”.

For `S` [H2S, hydrogen sulfide], the pKa in data set [5] is listed as 7.0.

`CC(=O)N[C@@H](CSSC[C@H](NC(C)=O)C(=O)O)C(=O)O` [NAC disulfide, N-Acetylcysteine disulfide, reference compound]: the converted to trisulfide in data set [7] is on record as 15%.
